Assay results from US20240368120A1 (Terns Pharmaceuticals, Inc., priority 2023, published 2024).

Target: T1, human GLP-1R receptor (Homo sapiens, UniProt P43220)
T1 construct: expressed in transfected cells
Experiment: GLP-1R low expression cell assay (cAMP TR-FRET, CHO-K1_hGLP-1Rlow_clone10 cells)
Assay type: cell-based
Conditions: for EC50: cAMP TR-FRET, 30 min at 25° C.
Outline: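 Readout is cAMP TR-FRET after 30 min compound stimulation at 25 °C of a low-GLP-1R-expressing CHO-K1 clone (1,000 cells/well), with 10-point 3-fold serial dilutions. Percent activation versus a control GLP-1 peptide, from duplicates, was Hill-fitted to give EC50.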

[1] = maximum activation relative to control GLP-1 peptide agonist

T1 sequence (P43220 24-463): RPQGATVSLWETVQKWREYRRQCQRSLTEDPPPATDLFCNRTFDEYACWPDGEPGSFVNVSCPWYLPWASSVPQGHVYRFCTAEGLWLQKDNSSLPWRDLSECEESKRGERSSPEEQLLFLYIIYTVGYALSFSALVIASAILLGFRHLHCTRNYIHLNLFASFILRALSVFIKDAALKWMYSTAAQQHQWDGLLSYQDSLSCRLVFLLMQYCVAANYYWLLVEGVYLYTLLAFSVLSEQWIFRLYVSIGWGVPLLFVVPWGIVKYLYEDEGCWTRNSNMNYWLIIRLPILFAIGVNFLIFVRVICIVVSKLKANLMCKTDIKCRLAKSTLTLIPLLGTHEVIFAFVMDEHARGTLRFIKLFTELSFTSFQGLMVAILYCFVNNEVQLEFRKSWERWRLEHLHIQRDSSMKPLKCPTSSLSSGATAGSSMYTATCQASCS

**Q.** Which EC50 does the source give for Cn1c(CN2CCC(c3cccc(OCc4ccc(C5COC5)cc4F)n3)CC2)nc2c(OC(F)F)cc(C(=O)O)cc21 [Compound 141, 4-(Difluoromethoxy)-2-((4-(6-((2-fluoro-4-(oxetan-3-yl)benzyl)oxy)pyridin-2-yl)piperidin-1-yl)methyl)-1-methyl-1H-benzo[d]imidazole-6-carboxylic acid] here?
**A.** 10 to 100 nM

**Q.** And the Emax [1]?
**A.** > 85%

**Q.** Which results are given for COc1cc(C(=O)O)cc2c1nc(CN1CCN(c3cccc(OCc4ccc(Cl)cc4F)n3)CC1)n2C [Compound 383, 2-((4-(6-((4-Chloro-2-fluorobenzyl)oxy)pyridin-2-yl)piperazin-1-yl)methyl)-4-methoxy-1-methyl-1H-benzo[d]imidazole-6-carboxylic acid]?
**A.** EC50: 10 to 100 nM; Emax [1]: > 85%

**Q.** Which EC50 does the source give for Cn1c(CN2CCC(c3cccc(OCc4ccc(Cl)cc4F)n3)CC2)nc2c(OC(F)CF)cc(C(=O)O)cc21 (single isomer, unassigned) [Compound 329] here?
**A.** < 10 nM

**Q.** What about the Emax [1] of the same molecule?
**A.** > 85%

**Q.** For Cn1c(CN2CCC(c3cccc(OCc4ccc(Cl)cc4F)c3)CC2)nc2c(OC(F)F)cc(N3CC(=O)NS3(=O)=O)cc21 [Compound 281, 5-(2-((4-(3-((4-Chloro-2-fluorobenzyl)oxy)phenyl)piperidin-1-yl)methyl)-4-(difluoromethoxy)-1-methyl-1H-benzo[d]imidazol-6-yl)-1,2,5-thiadiazolidin-3-one 1,1-dioxide], which EC50 is on record?
**A.** > 1000 nM

**Q.** What about the Emax [1] of the same molecule?
**A.** 50 to 85%

**Q.** What does the source list for CCOc1cc(C(=O)O)cc2c1nc(CN1CCC(c3cccc4c3O[C@H](c3ccc(Cl)cc3F)CO4)CC1)n2C [Compound 265, (R)-2-((4-(3-(4-chloro-2-fluorophenyl)-2,3-dihydrobenzo[b][1,4]dioxin-5-yl)piperidin-1-yl)methyl)-4-ethoxy-1-methyl-1H-benzo[d]imidazole-6-carboxylic acid]?
**A.** EC50: 10 to 100 nM; Emax [1]: > 85%

**Q.** COCCn1c(CN2CCC(c3cccc(OCc4ccc(C#N)cc4F)n3)CC2)nc2c(OC(F)F)cc(C(=O)O)cc21 [Compound 106, 2-((4-(6-((4-Cyano-2-fluorobenzyl)oxy)pyridin-2-yl)piperidin-1-yl)methyl)-4-(difluoromethoxy)-1-(2-methoxyethyl)-1H-benzo[d]imidazole-6-carboxylic acid] was tested. Which EC50 did it give?
**A.** < 10 nM

**Q.** And the Emax [1]?
**A.** > 85%

**Q.** Which EC50 does the source give for COc1cc(C(=O)O)cc2c1nc([C@H](C)N1CCC(c3cccc4c3O[C@@](C)(c3ccc(Cl)cn3)O4)CC1)n2C [Compound 96, 2-((S)-1-(4-((S)-2-(5-Chloropyridin-2-yl)-2-methylbenzo[d][1,3]dioxol-4-yl)piperidin-1-yl)ethyl)-4-methoxy-1-methyl-1H-benzo[d]imidazole-6-carboxylic acid] here?
**A.** 10 to 100 nM

**Q.** And the Emax [1]?
**A.** > 85%

**Q.** With Cn1c(CN2CCC(c3cccc(OCc4ccc(Cl)cc4F)n3)CC2)nc2c(OCC3(F)CC3)cc(C(=O)O)cc21 [Compound 188, 2-((4-(6-((4-Chloro-2-fluorobenzyl)oxy)pyridin-2-yl)piperidin-1-yl)methyl)-4-((1-fluorocyclopropyl)methoxy)-1-methyl-1H-benzo[d]imidazole-6-carboxylic acid] as the molecule, how does the EC50 read?
**A.** 10 to 100 nM

**Q.** And the Emax [1]?
**A.** > 85%

**Q.** What does the source list for N#Cc1ccc(COc2cccc(C3CCN(Cc4nc5ccc(C(=O)O)c(O)c5n4C[C@@H]4CCO4)CC3)n2)c(F)c1 [Compound 377, (S)-2-((4-(6-((4-Cyano-2-fluorobenzyl)oxy)pyridin-2-yl)piperidin-1-yl)methyl)-7-hydroxy-1-(oxetan-2-ylmethyl)-1H-benzo[d]imidazole-6-carboxylic acid]?
**A.** EC50: < 10 nM; GLP-1R Low Expression Cell Assay Emax (%) [1]: ++++ (Emax is >85%)

**Q.** Which EC50 does the source give for CC(CO)Oc1cc(C(=O)O)cc2c1nc(CN1CCC(c3cccc(OCc4ccc(Cl)cc4F)n3)CC1)n2C (centres unmarked) [Compound 320, 2-((4-(6-((4-Chloro-2-fluorobenzyl)oxy)pyridin-2-yl)piperidin-1-yl)methyl)-4-((1-hydroxypropan-2-yl)oxy)-1-methyl-1H-benzo[d]imidazole-6-carboxylic acid] here?
**A.** 10 to 100 nM

**Q.** And the Emax [1]?
**A.** > 85%
